The subject of one assay is HCT-116. In words: XTT cytotoxicity assay. The class given is cell-based, human. Particulars: read-out: Inhibition of Cancer Cell Proliferation (IC50) HCT-116. The protocol: (§1) In initial experiments, compounds 4a-g and 7c-g were evaluated for their cytotoxicity against human breast cancer cell lines MCF-7 and MDA-MB-468 and human colon cancer cell line HCT-116. The makaluvamine compounds provided in Table 2 were also evaluated for their cytotoxicity against human breast cancer cell lines MCF-7. Compound nos. 8 and 27-33 were not evaluated in this experiment. Cells were obtained from ATCC (Manassas, Va.). For each derivative the IC50 value was determined using data generated from 2-4 independent tetrazolium-based (XTT) cytotoxicity assays (R & D Systems Inc., Minneapolis, Minn.) according to the manufacturer's instructions. […] MCF-7, MDA-MD-468 and HCT-116 cells were grown at 37 degrees C. in a humidified atmosphere with complete growth media supplemented with fetal bovine serum. Growth media was changed 2-3 times per week as required.
Background: Tetrazolium assays rely on reduction of a dye to a coloured formazan, in cell work by metabolically active cells.

In the next assay the test system is MDA-MB-468. In words: XTT cytotoxicity assay. The class given is cell-based, human. Particulars: read-out: Inhibition of Cancer Cell Proliferation (IC50) MDA-MB-468. The protocol: as §1
Another assay has as its system MCF-7. Kind of assay: XTT cytotoxicity assay. In kind it is cell-based, human. The protocol:
as §1

The next assay deals with T1, topoisomerase II (Homo sapiens, UniProt P11388).
T1 construct: purchased TopoGEN, Inc., Port Orange, Fla
T1 sequence (P11388 whole entry): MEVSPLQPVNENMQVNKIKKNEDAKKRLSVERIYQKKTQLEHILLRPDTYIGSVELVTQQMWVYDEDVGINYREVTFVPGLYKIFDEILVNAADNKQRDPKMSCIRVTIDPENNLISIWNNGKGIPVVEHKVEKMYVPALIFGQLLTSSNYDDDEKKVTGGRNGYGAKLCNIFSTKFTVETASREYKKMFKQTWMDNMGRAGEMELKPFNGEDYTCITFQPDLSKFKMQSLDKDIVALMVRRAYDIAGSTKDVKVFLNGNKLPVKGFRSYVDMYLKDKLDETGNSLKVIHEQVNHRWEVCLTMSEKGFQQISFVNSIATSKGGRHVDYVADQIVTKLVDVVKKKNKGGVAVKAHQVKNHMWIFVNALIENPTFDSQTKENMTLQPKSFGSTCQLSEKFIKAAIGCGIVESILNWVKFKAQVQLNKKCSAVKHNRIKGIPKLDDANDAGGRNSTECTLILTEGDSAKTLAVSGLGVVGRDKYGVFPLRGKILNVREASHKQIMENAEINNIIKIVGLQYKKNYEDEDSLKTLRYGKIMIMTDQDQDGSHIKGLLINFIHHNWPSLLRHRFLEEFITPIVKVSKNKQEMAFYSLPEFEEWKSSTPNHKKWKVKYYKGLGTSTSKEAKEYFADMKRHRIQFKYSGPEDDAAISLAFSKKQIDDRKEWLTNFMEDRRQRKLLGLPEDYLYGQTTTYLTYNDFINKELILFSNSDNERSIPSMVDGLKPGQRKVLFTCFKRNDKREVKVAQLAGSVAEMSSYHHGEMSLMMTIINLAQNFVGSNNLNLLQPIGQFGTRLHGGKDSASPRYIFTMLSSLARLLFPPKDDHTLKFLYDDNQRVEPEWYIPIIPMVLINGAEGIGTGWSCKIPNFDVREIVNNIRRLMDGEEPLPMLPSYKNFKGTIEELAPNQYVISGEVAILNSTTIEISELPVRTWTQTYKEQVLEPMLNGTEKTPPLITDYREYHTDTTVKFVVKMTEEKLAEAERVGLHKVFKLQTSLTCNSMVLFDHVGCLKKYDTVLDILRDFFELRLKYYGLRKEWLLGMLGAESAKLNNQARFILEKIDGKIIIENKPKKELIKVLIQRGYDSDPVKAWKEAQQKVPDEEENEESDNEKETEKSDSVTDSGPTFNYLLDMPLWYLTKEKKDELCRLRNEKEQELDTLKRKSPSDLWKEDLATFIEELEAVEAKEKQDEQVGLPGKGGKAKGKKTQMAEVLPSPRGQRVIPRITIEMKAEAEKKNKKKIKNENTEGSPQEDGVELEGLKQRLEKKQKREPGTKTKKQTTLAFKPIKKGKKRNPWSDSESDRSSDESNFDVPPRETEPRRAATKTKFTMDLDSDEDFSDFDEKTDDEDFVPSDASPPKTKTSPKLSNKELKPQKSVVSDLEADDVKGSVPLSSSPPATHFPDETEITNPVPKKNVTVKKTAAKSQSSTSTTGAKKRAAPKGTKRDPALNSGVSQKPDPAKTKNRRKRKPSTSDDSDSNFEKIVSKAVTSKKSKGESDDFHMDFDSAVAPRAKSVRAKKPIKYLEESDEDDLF
In words: Topoisomerase II drug screening kit (relaxation of plasmid DNA). The class given is biochemical. Set-up: key to Topoisomerase II Inhibition: — none; + low; ++ moderate; +++ strong. Particulars: for Topoisomerase II Inhibition: 100 μM drug compound, topoisomerase II (4U), 500 ng plasmid DNA; for inhibition of topoisomerase II catalytic activity (in words): 100 μM makaluvamine derivative. The text has this: In order to determine the effect of the makaluvamine derivatives of the present disclosure, the synthesized makaluvamine derivatives were screened for their ability to inhibit topoisomerase II activity in vitro. Topoisomerase II functions by generating a double-stranded DNA break followed by resealing of the break. Topoisomerase II inhibitors interfere with the breakage-rejoining reaction thereby trapping the enzyme in a cleavage complex. In order to determine if the disclosed makaluvamine derivatives inhibited topoisomerase II activity, nine of the derivatives were tested for topoisomerase II inhibitory activity using a topoisomerase-II drug screening kit (TopoGEN, Inc., Port Orange, Fla.) according to the manufacturer's instructions. The screening kit uses a supercoiled plasmid DNA substrate (pRYG) which contains one topoisomerase II cleavage/recognition site. […] Relaxed DNA was separated using non-ethidium bromide (EtBr) agarose gels, then stained with EtBr and quantified using Kodak Gel Logic Imaging System and Molecular Imaging software (Eastman Kodak Co., Rochester, N.Y.). Inhibition of relaxation of plasmid DNA or catalytic activity was reported as; − none, + low, ++ moderate, or +++ strong.

The subject of the next assay is MCF7 cells. Kind of assay: MTT growth inhibition assay. In kind it is cell-based, human. As to conditions: Table 5, MTT, 72 hr; for IC50: read-out: Growth inhibitory activity (IC50) in MCF7 cells.
In the next assay the test system is p53. In words: Protein expression, Western blot in MCF-7 cells. In kind it is cell-based, human. As to conditions: 1 μM, 6 h (FIG. 4A). The protocol:
(§2) In FIG. 4A, MCF-7 cells were exposed to 1 μM concentration of the indicated compounds for 6 hours. Western blots were probed with antibodies specific for the proteins indicated. Numbers below each lane show densitometry readings for each lane as compared to control. […] Western blots were probed with antibodies specific for the proteins indicated.
(§3) To determine the disclosed compounds effect on protein expression in human breast cancer cells, cultured MCF-7 cells were exposed to various concentrations of the test compounds for 6 h (FIG. 4A) or 24 h (FIG. 4B). Cell lysates were fractionated with identical amounts of protein by SDS-PAGE and transferred to Bio-Rad trans-Blot nitrocellulose membranes (Bio-Rad Laboratories, Hercules, Calif.). The nitrocellulose membrane was incubated in blocking buffer (Tris-buffered saline containing 0.1% Tween 20 and 5% nonfat milk) for 1 h at room temperature, then with the appropriate primary antibody overnight at 4° C. or 2 h at room temperature with gentle shaking. Finally, the membrane was washed three times with the washing buffer (Tris-buffered saline containing 0.1% Tween 20) for 15 min, incubated with goat anti mouse/rabbit IgG-horseradish peroxidase-conjugated antibody (Bio-Rad) for 1 h at room temperature, and washed again (in triplicate). The protein of interest was detected by enhanced chemiluminescence reagents from PerkinElmer LAS, Inc (Boston, Mass.).
Background: In western blotting, separated proteins are transferred to a membrane and probed.

Another assay has as its system MDM2. In words: Protein expression, Western blot in MCF-7 cells. The class given is cell-based, human. As to conditions: 1 μM, 6 h (FIG. 4A). As for the experimental part: as §2, §3
Another assay relates to p21. In words: Protein expression, Western blot in MCF-7 cells. The class given is cell-based, human. As to conditions: 1 μM, 6 h (FIG. 4A). The protocol:
as §2, §3

[1] abbreviates: average ± standard deviation of 2-4 independent assays.
The mark [2] stands for this setting: XTT, average ± standard deviation of 2-4 independent assays, read-out: Inhibition of Cancer Cell Proliferation (IC50) MCF-7.

“Also recorded” adds a separate entry of the source. Read-outs that look alike come from different tables or passages of the source.

Method for MCF7 cells: The cell lines were obtained from the American Type Culture Collection (Rockville, Md.) and were grown as follows: MCF-7 (p53 wt) breast cancer cells were grown in DMEM media containing 1 mM non-essential amino acids, Earle's BSS, 1 mM Na pyruvate, and 10 mg/L bovine insulin.
All media contained 10% FBS and 1% penicillin/streptomycin unless otherwise specified. The effects of disclosed compounds on human cancer cell growth, expressed as the percentage of cell survival, were determined by the MTT [3-(4,5-Dimethyl-2-thiazolyl)-2,5-diphenyl-2H-tetrazolium bromide] assay. Cells were grown in 96-well plates and exposed to the test compounds (0, 0.01, 0.1, 1, 10, 100 μM) for 72 hr followed by addition of 10 μL MTT solution (5 mg/mL; Sigma; St. Louis, Mo.) to each well. The plates were incubated for 2-4 hr at 37° C. The supernatant was then removed and formazan crystals were dissolved with 100 μL of DMSO. The absorbance at 570 nm was recorded with an OPTImax microplate reader (Molecular Devices; Sunnyvale, Calif.). The cell survival percentages were calculated by dividing the mean OD of compound containing wells by that of DMSO-control wells. Three separate experiments were accomplished to determine the IC50.

As for `CCNC1=CC2=NCCc3c[nH]c(c32)C1=O` [Compound 4b], the IC50 worked out at 3.6 ± 0.7 µM with HCT-116 (setting [1]), 0.4 ± 0.03 µM in the assay with MDA-MB-468 (setting [1]) and 1.3 ± 0.3 µM with MCF-7 (setting [2]). On topoisomerase II, the “Topoisomerase II Inhibition” value is reported as “—”.
In the case of `O=C1C(NCCc2cc(Br)c(O)c(Br)c2)=CC2=NCCc3c[nH]c1c32` [Compound 4f], the IC50 with HCT-116 (setting [1]) amounted to 14.4 ± 1.2 µM; with MDA-MB-468 (setting [1]), 4.5 ± 0.8 µM; with MCF-7 (setting [2]), 13.2 ± 3.1 µM; in the assay on MCF7 cells it was 2.72 µM. In addition, the “Topoisomerase II Inhibition” value on topoisomerase II is “+++”. Also, the “inhibition of topoisomerase II catalytic activity (in words)” value on topoisomerase II was “comparable to etoposide and m-AMSA; also recorded: strongest inhibition”. In the assay with MCF7 cells, the “Growth inhibitory activity (IC50) in MCF7 cells” value is listed as “μM range”. Further, the “expression of p53” value in the assay on p53 is given as “increased the expression”. In the assay on MDM2, the “expression of MDM2” value is “increased the expression”. Besides, the “expression of p21” value in the assay with p21 is “increased the expression”.
Turning to `O=C1C(NCCc2c[nH]c3ccccc23)=CC2=NCCc3c[nH]c1c32` [Compound 4g], the IC50 with HCT-116 (setting [1]) turned out to be 5.2 ± 0.8 µM; with MDA-MB-468 (setting [1]), 0.4 ± 0.01 µM; in the assay with MCF-7 (setting [2]), 1.6 ± 0.2 µM. Further, at topoisomerase II, the “Topoisomerase II Inhibition” value is recorded as “—”.
Regarding `Cc1ccc(S(=O)(=O)n2cc3c4c2C(=O)C(NCc2ccccc2)=CC4=NCC3)cc1` [Compound 7c], the IC50 in the assay on HCT-116 (setting [1]) turned out to be 2.7 ± 1.5 µM; in the assay with MDA-MB-468 (setting [1]), 1 ± 0.01 µM; in the assay on MCF-7 (setting [2]) it was 1.8 ± 0.2 µM; in the assay on MCF7 cells it was 1.21 µM. In addition, at topoisomerase II, the “Topoisomerase II Inhibition” value is listed as “+++”. Further, the “inhibition of topoisomerase II catalytic activity (in words)” value at topoisomerase II was “comparable to etoposide and m-AMSA; also recorded: strongest inhibition”. Further, in the assay on MCF7 cells, the “Growth inhibitory activity (IC50) in MCF7 cells” value was “μM range”. Besides, the “expression of p53” value in the assay on p53 was “increased the expression”. Also, in the assay on MDM2, the “expression of MDM2” value is given as “inhibited the expression”. The “expression of p21” value with p21 was “decreased the expression”.
For the compound `COc1cc([C@@H]2c3cc4c(cc3[C@@H](O[C@@H]3O[C@@H]5CO[C@@H](C)O[C@H]5[C@H](O)[C@H]3O)[C@H]3COC(=O)[C@H]23)OCO4)cc(OC)c1O` [Etoposide, reference compound], the IC50 in the assay with HCT-116 (Homo sapiens, HCT-116, average ± standard deviation of 2-4 independent assays) is 1.7 µM; in the assay with MDA-MB-468 (Homo sapiens, MDA-MB-468, average ± standard deviation of 2-4 independent assays) it was 13.6 µM; in the assay on MCF-7 (Homo sapiens, MCF7, Table 2, XTT, read-out: IC50 (μM) MCF-7) it was 30.5 µM; in the assay with MCF-7 (Homo sapiens, MCF7, XTT, average ± standard deviation of 2-4 independent assays, read-out: Inhibition of Cancer Cell Proliferation (IC50) MCF-7) it was 35.6 µM.
With `COc1cc(NS(C)(=O)=O)ccc1Nc1c2ccccc2nc2ccccc12` [m-AMSA, reference compound], the values for the IC50 in the assay on HCT-116 (setting [1]), in the assay on MDA-MB-468 (setting [1]) and with MCF-7 (setting [2]) were 0.7 µM, 8.5 µM and 21.7 µM, respectively. In addition, the “Topoisomerase II Inhibition” value on topoisomerase II is given as “++”.

Source of the values: patent US20100144779A1, “Marine Alkalod Makaluvamines and Derivatives Thereof” (THE UAB RESEARCH FOUNDATION, priority 2007, published 2010).
